In general, IC50 refers to the concentration at which inhibition is half-maximal.

The values below come from patent publication US20090036474A1, “Quinazoline derivatives for use against cancer” (priority 2004, published 2009).

In the experiment the target is T1, phospho-Tyr751 PDGFRβ (Homo sapiens, UniProt P09619).
T1 construct: phosphorylation of PDGFR expressed on MG63 osteosarcoma cells; endogenous in cells; host or cells: MG63 osteosarcoma cells
As to the kind of experiment: In vitro phospho-Tyr751 PDGFRβ ELISA assay in MG63 osteosarcoma cells, Test (b). As to conditions: MG63 cells stimulated with PDGFBB, read-out: IC50 versus phospho-Tyr751 PDGFRβ. The class given is cell-based. Here is the method:
This assay uses a conventional ELISA method to determine the ability of test compounds to inhibit phosphorylation of tyrosine in PDGFRβ.
An MG63 osteosarcoma cell line [American Type Culture Collection (ATCC) CCL 1427] was routinely maintained at 37° C. with 7.5% CO2 in Dulbecco's modified Eagle's growth medium (DMEM; Sigma-Aldrich; Catalogue No. D6546) containing 10% foetal calf serum (FCS; Sigma-Aldrich; Catalogue No. F7524) and 2 mM L-glutamine (Invitrogen Ltd., Paisley, UK; Catalogue No. 25030-024).
For the assay, the cells were detached from the culture flask using a trypsin/ethylenediaminetetraacetic acid (EDTA) mixture (Invitrogen Ltd.; Catalogue No. 15400-054) and resuspended in test media comprising DMEM without phenol red (Sigma-1-Aldrich; Catalogue No. D5921) containing 1% charcoal-stripped-foetal calf serum (FCS) (Sigma-Aldrich; Catalogue No. F7524, stripped by incubation with dextran-coated activated charcoal at 55° C. for 30 minutes with continuous stirring followed by removal of the charcoal by centrifugation and filter sterilisation) and 2 mM L-glutamine (Invitrogen Ltd., Catalogue No. 25030-024) to give 6×10^4 cells per ml. […]
Background: ELISA stands for enzyme-linked immunosorbent assay.

T1 sequence (P09619 33-1106): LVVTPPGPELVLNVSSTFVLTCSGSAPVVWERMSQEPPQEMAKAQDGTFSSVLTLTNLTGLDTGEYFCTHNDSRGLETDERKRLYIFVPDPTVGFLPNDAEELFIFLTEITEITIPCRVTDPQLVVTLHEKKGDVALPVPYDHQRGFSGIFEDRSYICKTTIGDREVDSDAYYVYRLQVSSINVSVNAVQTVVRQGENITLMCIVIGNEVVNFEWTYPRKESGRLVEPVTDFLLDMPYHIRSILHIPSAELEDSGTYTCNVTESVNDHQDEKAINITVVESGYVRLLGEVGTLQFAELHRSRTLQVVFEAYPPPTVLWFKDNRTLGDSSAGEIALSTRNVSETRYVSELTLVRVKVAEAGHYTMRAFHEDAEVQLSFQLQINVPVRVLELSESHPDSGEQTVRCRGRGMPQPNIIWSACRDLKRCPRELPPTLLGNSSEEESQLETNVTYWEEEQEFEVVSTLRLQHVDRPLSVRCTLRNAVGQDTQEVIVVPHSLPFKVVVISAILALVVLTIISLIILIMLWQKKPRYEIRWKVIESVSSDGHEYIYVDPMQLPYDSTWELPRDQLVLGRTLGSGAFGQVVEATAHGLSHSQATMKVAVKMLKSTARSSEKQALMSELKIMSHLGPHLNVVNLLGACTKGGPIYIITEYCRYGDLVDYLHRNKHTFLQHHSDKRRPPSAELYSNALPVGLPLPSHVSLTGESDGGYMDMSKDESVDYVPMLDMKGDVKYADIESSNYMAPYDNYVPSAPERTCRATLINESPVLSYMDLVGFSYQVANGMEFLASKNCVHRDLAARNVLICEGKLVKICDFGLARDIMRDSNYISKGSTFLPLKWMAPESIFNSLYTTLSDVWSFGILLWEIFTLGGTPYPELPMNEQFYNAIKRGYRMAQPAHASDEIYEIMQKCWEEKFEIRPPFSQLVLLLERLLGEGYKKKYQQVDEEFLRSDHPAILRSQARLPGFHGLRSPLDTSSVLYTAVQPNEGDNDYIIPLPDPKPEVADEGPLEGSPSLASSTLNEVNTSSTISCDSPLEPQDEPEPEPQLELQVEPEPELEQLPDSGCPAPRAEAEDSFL

With `COc1cc2ncnc(Oc3cnn(CC(=O)Nc4cccc5c4OCO5)c3)c2cc1OC` [Example 2, N-(2,3-methylenedioxyphenyl)-2-[4-(6,7-dimethoxyquinazolin-4-yloxy)pyrazol-1-yl]acetamide], the concentration for half-maximal inhibition (IC50) is around 3 nM.
